US20060276407A1, “Methods of treating hepatitis C virus” (Schering Corporation, priority 2005, published 2006)
Values joined by “and” are separate entries in the source; they are usually repeats but may differ in a detail not shown here. Equal entries are not always repeated. Where two headings read alike, the source gives them in different places.

Assay: Food-effect crossover bioavailability study, 600 mg fed vs fasted, healthy adult subjects (Example 2)
Assay type: in vivo, human
Details: for Plasma concentration at 8 hours / Plasma concentration at 12 hours: individual subjects; for concentration at 8 hours / concentration at 12 hours / Vd/F / AUC / Cmax / half-life / Tmax: both sexes, human, plasma, po, 600 mg; for half-life: read-out: t½ (converted); for Tmax: median (range)
Method: This was a randomized, open-label, single-dose, two-treatment (fed or fasted), two-period, two-sequence crossover study of the effect of food on the bioavailability of compound of Formula Ia in 23 healthy adult male and female subjects. The primary pharmacokinetic parameters were AUC(l) and Cmax for compound of Formula Ia. The study included a 7-day wash-out period between treatment periods.
Subjects were confined at the study site at least 14 hours prior to each treatment (Day −1). On the morning of Day 1, following a 10-hour overnight fast, subjects were randomized to receive in a particular order Treatment A and Treatment B: • Treatment A: compound of Formula Ia 600 mg (6×100 mg capsules) PO following an overnight fast. • Treatment B: compound of Formula Ia 600 mg (6×100 mg capsules) PO within 20 minutes following the completion of a standard high-fat breakfast. There was a 7-day wash-out period between receiving treatments.
Subjects receiving Treatment A received a formulation of compound of Formula Ia comprised of compound of Formula Ia and a pharmaceutically acceptable carrier, such as microcrystalline cellulose, while continuing to fast, while subjects randomized to Treatment B consumed a standardized high-fat meal prior to compound administration (within 20 minutes prior to the compound administration). The capsules along with approximately 240 mL of water were swallowed whole, not chewed or crushed. […] Water was permitted as desired except for 1 hour before and after compound administration. A washout period of at least 7 days separated the two treatment periods. Upon return to the clinic, subjects underwent the same procedures as the first period and continued the randomization sequence (subjects who received compound of Formula Ia fasted in Period 1 and then received compound of Formula Ia under fed conditions in Period 2, and vice versa).
Blood samples (7 mL each) for the determination of compound of Formula Ia levels were drawn immediately prior to dosing (0 hour), and at 0.5, 1, 1.5, 2, 2.5, 3, 4, 5, 6, 8, 12, 24, 36, and 48 hours after dosing. The blood samples were collected into tubes containing EDTA. The samples were centrifuged at 1500 g for 10 minutes to obtain plasma and the plasma samples were frozen at −20° C. and maintained in the frozen state until assayed.
Plasma concentrations of compound of Formula Ia were determined using a validated liquid chromatography tandem mass spectrometry (LC-MS/MS) method. The assay lower limit of quantitation (LLOQ) was 0.50 ng/mL and the method was validated over the concentration range of 0.50 to 1000 ng/mL.
The mean and percent coefficient of variation (% CV) were calculated for plasma concentrations of compound of Formula Ia at each time point. Concentration values less than the assay LLOQ were reported as, and set to zero in the tables and calculations. The plasma concentration-time data for compound of Formula Ia were subjected to pharmacokinetic analysis by noncompartmental methods using WinNonlin software. Nominal sampling times were used for pharmacokinetic analysis, since none of the pharmacokinetic sampling time deviations were >10% of the nominal times. For each subject, the following pharmacokinetic parameters were determined for compound of Formula Ia: maximum plasma concentration (Cmax), time of maximum observed plasma concentration (Tmax), the final quantifiable sampling time (tf), area under the plasma concentration-time curve from time 0 to tf (AUC[tf]), AUC(l) (AUC[tf]+ C[tf]estimated/K) and Vd/F. The K and C(tf)estimated are defined as terminal elimination rate constant and estimated concentration at final quantifiable sample, respectively. Terminal phase half-life (t½=ln 2/K) and apparent clearance (CLUF=Dose/AUC[l]) were also determined. Cmax, Tmax and tf were the observed values. […]

[1] = 600 mg PO, fasted, mean, balanced data
[2] = 600 mg PO, fed (high-fat breakfast), mean, balanced data
[3] = 600 mg PO, standardized high-fat meal

CC(C)(C)NC(=O)N[C@H](C(=O)N1C[C@H]2[C@@H]([C@H]1C(=O)NC(CC1CCC1)C(=O)C(N)=O)C2(C)C)C(C)(C)C (mixture of isomers) [Formula Ia, (1 R, 5S)-N-[3-Amino-1-(Cyclobutylmethyl)-2,3-Dioxopropyl]-3-[2(S)-[[[(1,1-Dimethylethyl)Amino]Carbonyl]Amino]-3,3-Dimethyl-1-Oxobutyl]-6,6-Dimethyl-3-Azabicyclo[3.1.0]Hexan-2(S)-Carboxamide]
Apparent mean Vd/F, fed versus fasted states (600 mg PO): about five
Median concentration at the 8-hour time point, fed state relative to fasted state (600 mg PO): more than 4 fold
Median concentration at the 12-hour time point, increase in fed state relative to fasted state (600 mg PO): 2 fold
AUC(l) Ratio Estimate (fed to fasted) (600 mg PO, Female (n = 10)): 225%
AUC(tf) Ratio Estimate (fed to fasted) (600 mg PO, Female (n = 10)): 229%
Cmax Ratio Estimate (fed to fasted) (600 mg PO, Female (n = 10)): 170%
AUC(l) Ratio Estimate (fed to fasted) (600 mg PO, Male (n = 10)): 202%
AUC(tf) Ratio Estimate (fed to fasted) (600 mg PO, Male (n = 10)): 205%
Cmax Ratio Estimate (fed to fasted) (600 mg PO, Male (n = 10)): 155%
Plasma concentration at 8 hours (600 mg PO, fasted): 37.5 ng/mL and 18.7 ng/mL and 37.4 ng/mL and 13.4 ng/mL and 77.9 ng/mL and 39.0 ng/mL and 46.6 ng/mL and 50.0 ng/mL and 66.8 ng/mL and 19.3 ng/mL and 8.50 ng/mL and 27.3 ng/mL and 24.8 ng/mL and 24.1 ng/mL and 81.3 ng/mL and 58.0 ng/mL and 33.5 ng/mL and 28.7 ng/mL and 27.8 ng/mL
Plasma concentration at 12 hours (600 mg PO, fasted): 20.9 ng/mL and 8.12 ng/mL and 27.0 ng/mL and 4.90 ng/mL and 21.3 ng/mL and 16.3 ng/mL and 18.3 ng/mL and 20.6 ng/mL and 11.4 ng/mL and 4.46 ng/mL and 3.11 ng/mL and 13.2 ng/mL and 9.56 ng/mL and 19.6 ng/mL and 26.6 ng/mL and 14.3 ng/mL and 9.33 ng/mL and 9.50 ng/mL and 10.7 ng/mL
CL/F [1]: 393 L/h
CL/F [2]: 179 L/h
Plasma concentration at 8 hours (600 mg PO, fed): 33.8 ng/mL and 62.2 ng/mL and 190 ng/mL and 92.4 ng/mL and 442 ng/mL and 81.4 ng/mL and 54.3 ng/mL and 675 ng/mL and 392 ng/mL and 949 ng/mL and 46.1 ng/mL and 426 ng/mL and 283 ng/mL and 55.6 ng/mL and 164 ng/mL and 612 ng/mL and 54.8 ng/mL and 447 ng/mL and 33.6 ng/mL
Plasma concentration at 12 hours (600 mg PO, fed): 7.34 ng/mL and 11.2 ng/mL and 27.8 ng/mL and 13.6 ng/mL and 37.2 ng/mL and 13.9 ng/mL and 33.5 ng/mL and 384 ng/mL and 184 ng/mL and 54.2 ng/mL and 6.70 ng/mL and 22.2 ng/mL and 140 ng/mL and 10.4 ng/mL and 87.3 ng/mL and 109 ng/mL and 9.17 ng/mL and 48.8 ng/mL and 7.09 ng/mL
AUC(l) Ratio Estimate (fed to fasted) (600 mg PO, n = 20): 214%
AUC(tf) Ratio Estimate (fed to fasted) (600 mg PO, n = 20): 217%
Cmax Ratio Estimate (fed to fasted) (600 mg PO, n = 20): 162%
Increase of Cmax in the fed state [3]: 62%
Increase of mean relative bioavailability (AUC) in the fed state relative to fasted [3]: over 100%
Safety profile (treatment emergent and treatment related AEs) (600 mg oral dose, both fed and fasted states): low frequency of treatment emergent and treatment related AEs
concentration at 8 hours (600 mg PO, fasted, Max): 81.3 ng/mL
concentration at 12 hours (600 mg PO, fasted, Max): 27 ng/mL
concentration at 8 hours (600 mg PO, fasted, Min): 8.5 ng/mL
concentration at 12 hours (600 mg PO, fasted, Min): 3.11 ng/mL
concentration at 8 hours (600 mg PO, fasted, mean): 37.9 ng/mL
concentration at 12 hours (600 mg PO, fasted, mean): 14.2 ng/mL
Vd/F [1]: 6730 L
AUC (600 mg PO, fasted, mean, balanced data, read-out: AUC(l)): 1750 ng·h/mL
AUC (600 mg PO, fasted, mean, balanced data, read-out: AUC(tf)): 1720 ng·h/mL
Cmax (600 mg PO, fasted, mean, balanced data, read-out: Cmax): 448 ng/mL
half-life [1]: 12 h
concentration at 8 hours (600 mg PO, fasted, median): 33.5 ng/mL
concentration at 12 hours (600 mg PO, fasted, median): 13.2 ng/mL
Tmax (600 mg PO, fasted, balanced data): 2 h
AUC (600 mg PO, fasted, n = 20, read-out: AUC(l), model-based (least square) mean): 1650 ng·h/mL
AUC (600 mg PO, fasted, n = 20, read-out: AUC(tf), model-based (least square) mean): 1620 ng·h/mL
Cmax (600 mg PO, fasted, n = 20, read-out: Cmax, model-based (least square) mean): 418 ng/mL
Vd/F [2]: 1150 L
AUC (600 mg PO, fed (high-fat breakfast), mean, balanced data, read-out: AUC(l)): 3700 ng·h/mL
AUC (600 mg PO, fed (high-fat breakfast), mean, balanced data, read-out: AUC(tf)): 3660 ng·h/mL
Cmax (600 mg PO, fed (high-fat breakfast), mean, balanced data, read-out: Cmax): 790 ng/mL
half-life [2]: 4.72 h
Tmax (600 mg PO, fed (high-fat breakfast), balanced data): 5 h
concentration at 8 hours (600 mg PO, fed, Max): 949 ng/mL
concentration at 12 hours (600 mg PO, fed, Max): 384 ng/mL
concentration at 8 hours (600 mg PO, fed, Min): 33.6 ng/mL
concentration at 12 hours (600 mg PO, fed, Min): 6.7 ng/mL
concentration at 8 hours (600 mg PO, fed, mean): 268 ng/mL
concentration at 12 hours (600 mg PO, fed, mean): 63.5 ng/mL
concentration at 8 hours (600 mg PO, fed, median): 164 ng/mL
concentration at 12 hours (600 mg PO, fed, median): 27.8 ng/mL
AUC (600 mg PO, fed, n = 20, read-out: AUC(l), model-based (least square) mean): 3530 ng·h/mL
AUC (600 mg PO, fed, n = 20, read-out: AUC(tf), model-based (least square) mean): 3500 ng·h/mL
Cmax (600 mg PO, fed, n = 20, read-out: Cmax, model-based (least square) mean): 678 ng/mL
